Format in all cases: physicochemical
The nature of data set [1]: Visible absorption maximum (Lambda max) of Dye C1 in the solvent, measure of solvent polarity/polarizability. As to conditions: for Lambda max of Dye C1: Dye C1 in the high-boiling solvent, Perkin Elmer Lambda 2S spectrophotometer; for polarity/polarizability (in words): relative to B1; for Lambda max of Dye C1 (in words): relative to B1 and B4. The procedure: (§1) As noted earlier, high-boiling solvents are desired that have low water solubility and low-to-moderate viscosity and that provide suitably bathochromic dye hues, i.e. hues of suitably long wavelengths. In this example, these properties are evaluated for comparison high-boiling solvents known in the art and for high-boiling solvents of this invention. Results are summarized in Table I. Structures of the comparative high-boiling solvents are provided after Table I.
(§2) Water solubilities were obtained from plots of light scattering at 500 nm of dispersions of the high-boiling solvent in water versus concentration. The light scattering density goes to zero at the solubility limit, when dispersions of high-boiling solvent are diluted. Values of log P calculated using MEDCHEM version 3.54 are also given in Table I and serve as rough indicators of water solubility. Viscosities reported in Table I were measured using a Brookfield cone/plate viscometer. Solvents of high polarity and/or polarizability are often needed to provide suitably bathochromic hues for the types of dyes commonly encountered in color photographic materials. Dye C1, whose structure is provided after Table I, is representative of such dyes. The visible absorption maxima (Lambda max) values for C1, measured with a Perkin Elmer Lambda 2S spectrophotometer, are provided in Table I as measure of solvent polarity/polarizability.

The nature of data set [2]: Viscosity measured using a Brookfield cone/plate viscometer. As to the method: as §1, §2
Data set [3] can be described thus: Water solubility from light scattering at 500 nm of dispersions of the high-boiling solvent in water. As to the method: As noted earlier, high-boiling solvents are desired that have low water solubility and low-to-moderate viscosity and that provide suitably bathochromic dye hues, i.e. hues of suitably long wavelengths. In this example, these properties are evaluated for comparison high-boiling solvents known in the art and for high-boiling solvents of this invention.
as §2, with “Values of log P calculated using MEDCHEM version 3.54 are also given in Table I and serve as rough indicators of water solubility.” left out

In brackets after ≈: the same amount, converted by molar mass.

Turning to `CCCCC(CC)COC(=O)C1CCCCC1` (stereo not drawn) [B3], in data set [1], the “Lambda max of Dye C1” value was 661 nm and the “polarity/polarizability (in words)” value was “reduced polarity/polarizability relative to B1”. The same compound registered a Viscosity in data set [2] of 6 centipoise.
Usually solubility stands for how much of the substance goes into solution per volume. `CCCCOC(=O)CCCCCCCCC(=O)OCCCC` [B2]: in data set [1], the “Lambda max of Dye C1” value is given as 658 nm and the “polarity/polarizability (in words)” value was “reduced polarity/polarizability relative to B1”. In addition, the solubility in data set [3] was determined as 0.8 µg/mL (≈ 2.54 µM). This compound also had a Viscosity in data set [2] of 9 centipoise.
As for `O=C(OCCc1ccccc1)c1ccccc1` [B4], in data set [1], the “Lambda max of Dye C1” value was determined as 674 nm. In data set [3], this compound yielded a solubility of 10 µg/mL (≈ 44.2 µM). In data set [2], this compound had a Viscosity of 14 centipoise.
Turning to `CCCCOC(=O)c1ccccc1C(=O)OCCCC` [B1, dibutyl phthalate], in data set [1], the “Lambda max of Dye C1” value was determined as 674 nm. The compound further had a solubility in data set [3] of 9.4 µg/mL (≈ 33.8 µM). The compound further displayed a Viscosity in data set [2] of 17 centipoise.
For `CC(C)(COC(=O)c1ccccc1)Cc1ccccc1` [A2], in data set [1], the “Lambda max of Dye C1” value was 668 nm; the “Lambda max of Dye C1 (in words)” value is “relatively close to those of B1 and B4”. The compound further showed a Viscosity in data set [2] of 99 centipoise.
`Cc1ccc(C(=O)OCCCc2ccccc2)cc1` [A3]: in data set [1], the “Lambda max of Dye C1” value was 670 nm; the “Lambda max of Dye C1 (in words)” value is “relatively close to those of B1 and B4”. The solubility in data set [3] came to 3.5 µg/mL (≈ 13.8 µM). Moreover, the Viscosity in data set [2] stood at 22 centipoise.
On to `O=C(OCCCc1ccccc1)c1ccccc1` [A1], for which, in data set [1], the “Lambda max of Dye C1” value is recorded as 673 nm; the “Lambda max of Dye C1 (in words)” value was “relatively close to those of B1 and B4”. This compound yielded a solubility in data set [3] of 5.5 µg/mL (≈ 22.9 µM). The compound further registered a Viscosity in data set [2] of 15 centipoise.
